Assay [1] addresses PEG-3 (UniProt Q6IN02). Nature of the assay: Peg3 promoter luciferase inhibitors, potency, dose response, cell-based, HeLa, CREF/GAPDH counter-screen panel (AID 624167). The following applies: HeLa PEG-Prom luciferase reporter, overnight, CREF/GAPDH counter-screens, mean of runs. (In general: A counterscreen serves to expose hits that act by an unwanted route or on another target.)

Assay [2] deals with PEG-3. The assay is described as above. To be noted: HeLa PEG-Prom luciferase reporter, overnight, CREF/GAPDH counter-screens. A general note: Reporter assays use an easily measured gene product as a stand-in for the process of interest.
Where [3] appears, read: run 1, dose range 1, individual replicate IC50 per panel.
Setting [4] is: run 2, dose range 1, individual replicate IC50 per panel.

Activity calls are given as the source filed them.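 How the source made its calls: active means mean IC50 for reducing PEG3 promoter reporter signal at or below a set limit, with IC50 above the limit in both counter screens; inactive means the rest, including counter screen hits.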 Bounds are passed on as bounds.

Chain of PEG-3 (UniProt Q6IN02) (Q6IN02 whole entry, looked up): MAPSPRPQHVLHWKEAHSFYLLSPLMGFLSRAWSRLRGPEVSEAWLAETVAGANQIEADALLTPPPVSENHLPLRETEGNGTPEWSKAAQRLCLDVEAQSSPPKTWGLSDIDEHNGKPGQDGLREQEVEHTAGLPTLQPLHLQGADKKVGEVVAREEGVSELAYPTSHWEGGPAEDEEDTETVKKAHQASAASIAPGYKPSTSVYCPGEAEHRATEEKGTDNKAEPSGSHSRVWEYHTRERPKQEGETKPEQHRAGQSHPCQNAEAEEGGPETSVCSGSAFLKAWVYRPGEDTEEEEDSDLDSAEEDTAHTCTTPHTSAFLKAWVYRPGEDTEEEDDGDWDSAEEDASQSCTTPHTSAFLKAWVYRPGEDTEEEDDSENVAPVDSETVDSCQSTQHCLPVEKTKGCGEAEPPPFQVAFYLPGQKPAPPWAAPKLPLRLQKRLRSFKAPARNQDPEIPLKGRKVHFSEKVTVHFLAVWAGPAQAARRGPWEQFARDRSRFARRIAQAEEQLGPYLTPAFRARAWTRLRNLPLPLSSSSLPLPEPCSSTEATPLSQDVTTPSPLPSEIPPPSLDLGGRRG

As usually defined, the IC50 is the point on the concentration scale where inhibition reaches its midpoint. For the compound `Cc1cc(Cl)n2ncc(-c3ccccc3)c2n1`, in assay [1], the IC50 entry was “inactive”. Moreover, the IC50 in assay [2] (setting [3]) is 40.1 µM; in assay [2] (setting [4]), greater than 100 µM.

Regarding `O=Cc1cn(Cc2ccc([N+](=O)[O-])cc2)c2ccccc12`, the IC50 was > 100 µM (inactive) in assay [1], greater than 100 µM in assay [2] (setting [3]) and greater than 100 µM in assay [2] (setting [4]).

In the case of `CCN1CCCC1CN(Cc1cc2ccc(C)cc2[nH]c1=O)C(=S)Nc1ccc(OC)cc1` (stereo not given), the IC50 entry in assay [1] is “inactive”. Further, the IC50 is 42 µM in assay [2] (setting [3]) and 37.5 µM in assay [2] (setting [4]).

As to `CN(C)S(=O)(=O)c1cccc(NC(=O)CSc2nc3c(cc2C#N)C(=O)CC(C)(C)C3)c1`, the IC50 result in assay [1] is “inactive”. For the same compound, the results for the half-maximal inhibitory concentration (IC50) in assay [2] (setting [3]) and in assay [2] (setting [4]) were 21.6 µM and 19.6 µM, respectively.

With `C[C@@H](C(=O)Nc1ccc2c(c1)OCCO2)n1c(=O)[nH]c2ccccc2c1=O`, in assay [1], the IC50 result is “inactive”. In addition, the IC50 in assay [2] (setting [3]) is 11.8 µM; in assay [2] (setting [4]), greater than 100 µM.

Turning to `Cc1ccc2[nH]c(=O)c(C3C(C#N)=C(N)Oc4c3ccc3cccnc43)cc2c1` (stereo not given), the IC50 entry in assay [1] is “inactive”. Also, the IC50 in assay [2] (setting [3]) stood at 28.3 µM; in assay [2] (setting [4]) it was 21.7 µM.

For `Cc1cc(C)cc(NC(=O)Cn2c(=O)oc3cc(S(=O)(=O)N4CCC(C)CC4)ccc32)c1`, the IC50 entry in assay [1] is “inactive”. Besides, the IC50 in assay [2] (setting [3]) was greater than 100 µM; in assay [2] (setting [4]), 7.9 µM.

As to `c1cc2c3c(cccc3c1)NC1(CCC3(CC1)Nc1cccc4cccc(c14)N3)N2`, the IC50 entry in assay [1] was “inactive”. Further, the IC50 in assay [2] (setting [3]) came to 18.4 µM; in assay [2] (setting [4]) it was 44.7 µM.

In the case of `CC(=O)c1cccc(NC(=O)c2cccc3c(-c4cccnc4)coc23)c1`, in assay [1], the IC50 result is “inactive”. The results for the 50% inhibitory concentration (IC50) in assay [2] (setting [3]) and in assay [2] (setting [4]) were 25.6 µM and greater than 100 µM, respectively.

In the case of `CC(=O)c1ccc(Nc2nc(C(N)Cc3ccc(Cl)cc3)cs2)cc1` (stereo not given), the IC50 result in assay [1] is “inactive”. For the same compound, the IC50 stood at 25.7 µM in assay [2] (setting [3]) and 15.1 µM in assay [2] (setting [4]).

Turning to `COc1ccc(CCn2c(=N)c(C(=O)NC3CCCC3)cc3c(=O)n4cccc(C)c4nc32)cc1`, the IC50 result in assay [1] was “inactive”. Besides, the values for the half-maximal inhibitory concentration (IC50) in assay [2] (setting [3]) and in assay [2] (setting [4]) were 15.8 µM and 42.7 µM, respectively.

For `COc1ccc(-c2cc(C(=O)N(C)Cc3ccccc3F)c3ccccc3n2)cc1OC`, the IC50 result in assay [1] was “inactive”. The concentration for half-maximal inhibition (IC50) in assay [2] (setting [3]) worked out at 23.9 µM; in assay [2] (setting [4]), 24.1 µM.

Turning to `CCCCNc1nc(=S)n(-c2ccccc2)c(C)c1C(C)=O`, the IC50 in assay [1] was 17.3 µM; in assay [2] (setting [3]), 22 µM; in assay [2] (setting [4]), 12.6 µM.

Turning to `CCn1c2ccccc2c2cc(NC(=O)C(C)OC(=O)c3ccc(NC(=O)CC#N)cc3)ccc21` (stereo not given), in assay [1], the IC50 entry is “inactive”. For the same compound, the IC50 in assay [2] (setting [3]) was determined as 41.9 µM; in assay [2] (setting [4]), 39.1 µM.

`COc1ccc(CN2CCN(C(=O)c3cc(-c4cccnc4)nc4ccc(Cl)cc34)CC2)c(OC)c1OC`: the IC50 entry in assay [1] was “inactive”. Also, the figures for the half-maximal inhibitory concentration (IC50) in assay [2] (setting [3]) and in assay [2] (setting [4]) were 52.4 µM and 16.4 µM, respectively.

For `CC(=O)Nc1cccc(-c2cc(NC=O)c3ncc(-c4ccc(C(C)=O)cc4)n3c2)c1`, the IC50 entry in assay [1] is “inactive”. Further, the figures for the IC50 in assay [2] (setting [3]) and in assay [2] (setting [4]) were 6 µM and greater than 100 µM, respectively.

Consider `O=C(CCN1C(=O)/C(=C/c2ccc(F)cc2)SC1=S)N[C@@H](CO)Cc1ccccc1`, for which the IC50 entry in assay [1] is “inactive”. Further, the IC50 in assay [2] (setting [3]) was 12.1 µM; in assay [2] (setting [4]), greater than 100 µM.

With `O=C(Nc1ccccc1)c1nc[nH]c1C(=O)NCCCCNC(=O)c1[nH]cnc1C(=O)Nc1ccccc1`, the half-inhibitory concentration (IC50) is 11.3 µM in assay [1], 17.7 µM in assay [2] (setting [3]) and 4.92 µM in assay [2] (setting [4]).

As to `Cc1cccc(N2CCN(C(=O)C3CCN(c4ncnc5c4nc4n5CCCCC4)CC3)CC2)c1C`, in assay [1], the IC50 entry was “inactive”. The IC50 in assay [2] (setting [3]) amounted to 30.2 µM; in assay [2] (setting [4]) it was 18.3 µM.

As for `O=C(NC1CCCCC1)C(c1cccnc1)N(C(=O)CCl)c1cccc(Cl)c1` (stereo not given), the IC50 was 15.5 µM in assay [1], 17.6 µM in assay [2] (setting [3]) and 13.4 µM in assay [2] (setting [4]).

`CN1CCC(N(C)S(=O)(=O)c2ccc(NC(=O)COc3ccc(Br)cc3Cl)cc2)CC1`: the IC50 in assay [1] is 18.7 µM; in assay [2] (setting [3]) it was 23 µM; in assay [2] (setting [4]) it was 14.5 µM.

Take `O=Cc1cn(Cc2ccc(F)cc2)c2ccccc12`: the figures for the IC50 in assay [1], in assay [2] (setting [3]) and in assay [2] (setting [4]) were 18.3 µM, 12.5 µM and 24.1 µM, respectively.

For `O=C(CCN1C(=O)/C(=C/c2cccs2)SC1=S)N1CCCCC1`, in assay [1], the IC50 result is “inactive”. Besides, the values for the half-inhibitory concentration (IC50) in assay [2] (setting [3]) and in assay [2] (setting [4]) were 24.6 µM and 25.5 µM, respectively.

`CCOc1cc(CNCCCN2CCOCC2)ccc1OCC(=O)Nc1cccc2ccccc12`: the results for the half-maximal inhibitory concentration (IC50) in assay [1], in assay [2] (setting [3]) and in assay [2] (setting [4]) were 18.7 µM, 21.1 µM and 16.2 µM, respectively.

In the case of `Cc1c(C#N)c(N)nc2c3c(sc12)NC(=O)CC3c1ccc(Cl)cc1` (stereo not given), the IC50 in assay [1] is 14.2 µM; in assay [2] (setting [3]), 17.4 µM; in assay [2] (setting [4]) it was 11 µM.
